Measured values from patent US6818765B1, “Benzene-sulphonamide derivatives and their uses” (Universite de Liege, priority 1999, dated 2004).
Where two headings read alike, the source gives them in different places.

Target: T1, thromboxane A2 receptors (TPα) of human platelets (Homo sapiens, UniProt P21731)
T1 construct: endogenous in cells; host or cells: human platelets
T1 sequence (P21731 1-343): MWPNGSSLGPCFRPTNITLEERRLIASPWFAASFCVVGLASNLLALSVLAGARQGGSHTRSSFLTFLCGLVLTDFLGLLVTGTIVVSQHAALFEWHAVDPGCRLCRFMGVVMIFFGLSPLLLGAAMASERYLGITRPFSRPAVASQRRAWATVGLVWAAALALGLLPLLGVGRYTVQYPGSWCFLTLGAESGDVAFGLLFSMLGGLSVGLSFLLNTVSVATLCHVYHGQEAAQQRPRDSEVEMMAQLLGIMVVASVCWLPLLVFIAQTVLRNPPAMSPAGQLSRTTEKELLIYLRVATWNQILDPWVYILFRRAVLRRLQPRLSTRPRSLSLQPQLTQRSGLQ
Assay: Binding test: displacement of [3H]SQ-29.548 from human platelet thromboxane A2 receptors
Settings: for inhibition at 1 µM: read-out: Affinity: percent of [3H]SQ-29.548 specifically substituted by the examined compound, compound 10^-6 M; for inhibition at 0.1 µM: read-out: Affinity: percent of [3H]SQ-29.548 specifically substituted by the examined compound, compound 10^-7 M
Source text: To operate a first selection, the capacity of these compounds to displace in a specific way a tritium ligand, the [^3H]
Cozzi P., Giordani A., Menichincheri M., Pillan A., Pinciroli V., Rossi A., Tonani R., Volpi D., Tamburin M., Ferrario R., Fusar D., Salvati P.,—Agents combining thromboxane receptor antagonism with thromboxane synthase inhibition:[[[2-(1H-imidazol-1-yl)ethylidene]amino]oxy]alkanoic acids.—J. Med. Chem., 1994, 37, 3588-3604.

| SMILES | Affinity: percent of [3H]SQ-29.548 specifically substituted by the examined compound, 10^-6M [%] | IC50 [nM] | inhibition at 1 µM [%] | further results |
| --- | --- | --- | --- | --- |
| CC(C)NC(=O)NS(=O)(=O)c1cc([N+](=O)[O-])ccc1NCc1ccccc1 [Compound 21] | 92.2 | – | – | Affinity: percent of [3H]SQ-29.548 specifically substituted by the examined compound, 10^-7M: 44.2% |
| CC(C)NC(=O)NS(=O)(=O)c1cc([N+](=O)[O-])ccc1N1CCCCCC1 [Compound 64] | 57.8 | – | – | – |
| Cc1ccc(C)c(Nc2ccc([N+](=O)[O-])cc2S(=O)(=O)NC(=O)NC(C)C)c1 [Compound 89] | – | 11.5 | 96.6 | inhibition at 0.1 µM: 83.5% |
| Cc1cccc(C)c1Nc1ccc([N+](=O)[O-])cc1S(=O)(=O)NC(=O)NC(C)C [Compound 91] | – | 3.31 | 97.3 | inhibition at 0.1 µM: 90.8% |
| CCCCCNC(=O)NS(=O)(=O)c1cc([N+](=O)[O-])ccc1Nc1ccc(C)cc1 [Compound 95] | – | 1.45 | 98.5 | – |
| CC(C)NC(=O)NS(=O)(=O)c1cc([N+](=O)[O-])ccc1N[C@@H](C)c1ccccc1 [Compound 77] | 79.4 | – | – | – |
| CC(C)NC(=O)NS(=O)(=O)c1cc(Br)ccc1NC1C=CCCC1 (stereo not drawn) [Compound 71] | 77.8 | – | – | – |
| C=CCNC(=O)NS(=O)(=O)c1cc([N+](=O)[O-])ccc1NC1CCCCCCC1 [Compound 34] | 77.3 | – | – | – |
| Cc1ccccc1Nc1ccc([N+](=O)[O-])cc1S(=O)(=O)NC(=O)NC(C)C [Compound 30] | 95.1 | – | – | Affinity: percent of [3H]SQ-29.548 specifically substituted by the examined compound, 10^-7M: 80.8% |
| CCCCCNC(=O)NS(=O)(=O)c1cc(C#N)ccc1NC1CCCCC1 [Compound 97] | – | 98.5 | 89.7 | – |
| CC(C)NC(=O)NS(=O)(=O)c1cc([N+](=O)[O-])ccc1NC1CC2CCC1C2 (stereo not drawn) [Compound 54] | 91.7 | – | – | – |
| CCNC(=O)NS(=O)(=O)c1cc([N+](=O)[O-])ccc1NC1CCCCC1 [Compound 27] | 79.6 | – | – | – |
| CCCCCCCNC(=O)NS(=O)(=O)c1cc([N+](=O)[O-])ccc1NC1CCCCC1 [Compound 84] | – | 23.9 | 96.9 | inhibition at 0.1 µM: 73.7% |

More lines, main results first:

| Affinity: percent of [3H]SQ-29.548 specifically substituted by the examined compound, 10^-6M [%] | IC50 [nM] | inhibition at 1 µM [%] | SMILES | further results |
| --- | --- | --- | --- | --- |
| 95.5 | – | – | O=C(NC1CCCCC1)NS(=O)(=O)c1cc([N+](=O)[O-])ccc1NC1CCCCCCC1 [Compound 23] | Affinity: percent of [3H]SQ-29.548 specifically substituted by the examined compound, 10^-7M: 62.9% |
| 80.2 | – | – | CCNC(=O)NS(=O)(=O)c1cc([N+](=O)[O-])ccc1NC1CCCCCCC1 [Compound 44] | Affinity: percent of [3H]SQ-29.548 specifically substituted by the examined compound, 10^-7M: 51.3% |
| 74.5 | – | – | CCNC(=S)NS(=O)(=O)c1cc([N+](=O)[O-])ccc1NC1CCCCCC1 [Compound 39] | – |
| 92.9 | – | – | CC(C)NC(=S)NS(=O)(=O)c1cc([N+](=O)[O-])ccc1NC1CCCCC1 [Compound 14] | Affinity: percent of [3H]SQ-29.548 specifically substituted by the examined compound, 10^-7M: 34.0% |
| 50.0 | – | – | CC(C)NC(=O)NS(=O)(=O)c1cc(C#N)ccc1NC1CCCCC1 [Compound 43] | – |
| – | 57.8 | 93.3 | CCCNC(=O)NS(=O)(=O)c1cc([N+](=O)[O-])ccc1NC1CCCCC1 [Compound 81] | inhibition at 0.1 µM: 65% |
| 51.9 | – | – | CC(C)NC(=O)NS(=O)(=O)c1cc([N+](=O)[O-])ccc1NC1CCCCCCCCCCC1 [Compound 48] | – |
| – | 16.2 | 95.4 | Cc1cc(C)cc(Nc2ccc([N+](=O)[O-])cc2S(=O)(=O)NC(=O)NC(C)C)c1 [Compound 88] | inhibition at 0.1 µM: 82% |
| – | 2 | 98.3 | Cc1cccc(Nc2ccc([N+](=O)[O-])cc2S(=O)(=O)NC(=O)NC(C)C)c1C [Compound 49] | inhibition at 0.1 µM: 94.9% |
| 97.8 | – | – | Cc1cccc(Nc2ccc([N+](=O)[O-])cc2S(=O)(=O)NC(=O)NC(C)(C)C)c1 [Compound 19] | Affinity: percent of [3H]SQ-29.548 specifically substituted by the examined compound, 10^-7M: 93.3%; IC50 (read-out: IC 50: concentration required for replacing 50% of [3H]SQ-29.548 bound to receptors TPα): 3.96 nM |
| 63.7 | – | – | Cc1cccc(Nc2ccc([N+](=O)[O-])cc2S(=O)(=O)NC(=S)NC(C)C)c1 [Compound 11] | – |
